Laboratory results reported in US9850247B2 (Almac Discovery Limited, priority 2013, dated 2017).

Legend:
[1] = CLint estimates using human liver microsomes (Method 4); type: in vitro ADME; conditions: pH 7.4, 1 μM compound, read-out: Mics - CLint (HLM CLint)
Method: Method 4: Determination of CLint Estimates Using Human liver microsomes Test compounds (final concentration=1 μM; final DMSO concentration=0.1%) were incubated in 0.1 M phosphate buffer pH 7.4 with human liver microsomes (0.5 mg of protein/mL) at 37° C. Reactions were started by addition of NADPH in 0.1 M phosphate buffer pH 7.4 (final concentration 1 mM). 40 μL aliquots were removed at 2, 5, 10, 15, 20, 30, 40 and 50 min. Reactions were quenched in 80 μL of ice-cold methanol. Samples were subsequently frozen overnight then centrifuged at 3500 rpm for 20 min at 4° C. The supernatants were removed and transferred into analytical plates and analysed by LC/MS/MS. LC/MS/MS Method: All samples were analysed on a Waters Acquity I-Class coupled to a Waters Xevo TQD mass spectrometer. A Waters BEH C18 2.1×50 mm 1.7 μm column was used and mobile phases were water and methanol containing 0.1% formic acid as modifier. Analysis was by multiple reaction monitoring and conditions were optimised for each test compound. Data Analyses: From a plot of 1n peak area against time, the gradient of the line is determined. Subsequently, half-life and intrinsic clearance are calculated using the following equations. [formula] [formula] [formula] where V=Incubation volume (μL)/number of cells Method 5: Determination of Kinetic Solubility (in PBS Buffer)

Wee-1 kinase = molecular target: T1, Wee-1 kinase (Homo sapiens, UniProt P30291); experiment: Measurement of Wee-1 kinase activity (ADP-Glo luminescent kit); type: biochemical
T1 construct: purchased Invitrogen PV3817
Method: Method 1: Measurement of Wee-1 Kinase Activity
In the measurement of Wee-1 activity, a commercial peptide Poly(Lys Tyr (4:1)) hydrobromide was purchased from Sigma Aldrich and used as the substrate. Activated Wee-1 kinase was purchased from Invitrogen (PV3817) and an ADP-Glo luminescent kit was purchased from Promega.
All reactions took place in […] volumes in reaction buffer containing 40 mM Tris-HCl and 20 mM magnesium chloride, supplemented with 0.1 mg/mL bovine serum albumin and 2 mM DTT. Compounds were serially diluted in buffer and 5 μL of each concentration pipetted into a white 384 well plate (Sigma Aldrich M6186). A 5 μL aliquot of the Wee-1 enzyme was added to each well and the plate centrifuged for 1 min to ensure mixing of the enzyme and inhibitor.
The plate was incubated at room temperature for 30 minutes before the addition of 2.0 μg/mL of substrate and 30 μM ATP in a 5 μL aliquot. The plate was centrifuged for one minute and incubated for 1 h at RT.
15 µL of ADP-Glo stop reagent was added to each well to quench the reaction and deplete unconverted ATP. The plate was incubated for a further 40 min in the dark at RT.
30 μL of ADP-Glo kinase detection reagent was added to each well, converting ADP to ATP, catalysing the generation of luciferin by luciferase. The plate was shaken for 1 min, and incubated in the dark for an additional hour.
Luminescence from each well was detected using the Biotek Synergy4 HD plate reader and the percentage inhibition of kinase activity calculated for each inhibitor tested. Positive (kinase only) and negative (no kinase) controls were added to each plate to ensure specific interaction of kinase and inhibitor. The IC50 concentration for each inhibitor was calculated by plotting the percentage kinase inhibition against concentration of inhibitor and the curve generated by non-linear regression fitting.

T1 sequence (P30291 whole entry): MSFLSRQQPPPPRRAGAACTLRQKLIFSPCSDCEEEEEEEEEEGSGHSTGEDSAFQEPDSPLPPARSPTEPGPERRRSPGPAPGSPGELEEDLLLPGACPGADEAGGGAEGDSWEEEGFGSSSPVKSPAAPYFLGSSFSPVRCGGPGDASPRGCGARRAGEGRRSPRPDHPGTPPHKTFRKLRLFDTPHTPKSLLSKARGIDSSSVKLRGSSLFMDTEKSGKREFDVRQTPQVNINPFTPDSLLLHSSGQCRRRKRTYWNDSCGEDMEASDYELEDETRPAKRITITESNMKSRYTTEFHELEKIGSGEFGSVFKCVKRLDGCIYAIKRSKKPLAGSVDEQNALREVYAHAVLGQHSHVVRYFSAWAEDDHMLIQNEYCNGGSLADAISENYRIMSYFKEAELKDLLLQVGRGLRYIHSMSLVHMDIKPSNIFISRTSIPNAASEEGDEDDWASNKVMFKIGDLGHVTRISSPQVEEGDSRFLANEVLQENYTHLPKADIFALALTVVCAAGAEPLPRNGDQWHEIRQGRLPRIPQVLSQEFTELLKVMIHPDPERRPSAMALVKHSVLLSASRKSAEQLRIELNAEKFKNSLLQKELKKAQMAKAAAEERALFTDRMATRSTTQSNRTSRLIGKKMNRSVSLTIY

| Structure (SMILES) | microsomal CLint at 1 μM [1] [µL/min/mg] | IC50 (Wee-1 kinase) [nM] |
| --- | --- | --- |
| CN1CN(c2c(Cl)cccc2Cl)C(=O)c2cnc(Nc3ccc(N4CCCCC4)c(CO)c3)nc21 [Example 131, 3-(2,6-dichlorophenyl)-7-((3-(hydroxymethyl)-4-(piperidin-1-yl)phenyl)amino)-1-methyl-2,3-dihydropyrimido[4,5-d]pyrimidin-4(1H)-one] | ≥ 50 | ≥ 100 |
| CCN1CCN(c2ccc(Nc3ncc4c(n3)N(C)CN(c3c(Cl)cccc3Cl)C4=O)cc2)CC1 [Example 122, 3-(2,6-dichlorophenyl)-7-((4-(4-ethylpiperazin-1-yl)phenyl)amino)-1-methyl-2,3-dihydropyrimido[4,5-d]pyrimidin-4(1H)-one] | 15 to 50 | 10 to 100 |
| COCc1cc(Nc2ncc3c(n2)N(C)CN(c2ccccc2Cl)C3=O)ccc1N1CCNCC1 [Example 108, 3-(2-chlorophenyl)-7-((3-(methoxymethyl)-4-(piperazin-1-yl)phenyl)amino)-1-methyl-2,3-dihydropyrimido[4,5-d]pyrimidin-4(1H)-one] | ≤ 15 | 10 to 100 |
| CN1CN(c2c(Cl)cccc2Cl)C(=O)c2cnc(Nc3ccc(N4CCN(C)[C@H](CO)C4)cc3)nc21 [Example 49, (S)-3-(2,6-dichlorophenyl)-7-((4-(3-(hydroxymethyl)-4-methylpiperazin-1-yl)phenyl)amino)-1-methyl-2,3-dihydropyrimido[4,5-d]pyrimidin-4(1H)-one] | 15 to 50 | 10 to 100 |
| CN1CN(c2ccccc2Cl)C(=O)c2cnc(Nc3ccc(N4CCNC(C)(C)C4)cc3)nc21 [Example 106, 3-(2-chlorophenyl)-7-((4-(3,3-dimethylpiperazin-1-yl)phenyl)amino)-1-methyl-2,3-dihydropyrimido[4,5-d]pyrimidin-4(1H)-one] | ≤ 15 | 10 to 100 |
| C[C@@H]1CN(c2ccc(Nc3ncc4c(n3)N(C)CN(c3c(Cl)cccc3Cl)C4=O)cc2C(F)F)CCN1 [Example 139, (R)-3-(2,6-dichlorophenyl)-7-((3-(difluoromethyl)-4-(3-methylpiperazin-1-yl)phenyl)amino)-1-methyl-2,3-dihydropyrimido[4,5-d]pyrimidin-4(1H)-one] | 15 to 50 | 10 to 100 |
| Cc1cc(Nc2ncc3c(n2)N(C)CN(c2c(Cl)cccc2Cl)C3=O)ccc1N1C[C@H]2C[C@@H]1CN2C [Example 121, 3-(2,6-dichlorophenyl)-1-methyl-7-((3-methyl-4-((1R,4R)-5-methyl-2,5-diazabicyclo[2.2.1]heptan-2-yl)phenyl)amino)-2,3-dihydropyrimido[4,5-d]pyrimidin-4(1H)-one] | 15 to 50 | 10 to 100 |
| Cc1cc(Nc2ncc3c(n2)N(C)CN(c2c(Cl)cccc2Cl)C3=O)ccc1N1C[C@H]2C[C@@H]1CN2 [Example 118, 7-((4-((1R,4R)-2,5-diazabicyclo[2.2.1]heptan-2-yl)-3-methylphenyl)amino)-3-(2,6-dichlorophenyl)-1-methyl-2,3-dihydropyrimido[4,5-d]pyrimidin-4(1H)-one] | ≤ 15 | 10 to 100 |
| Cc1cccc(Cl)c1N1CN(C)c2nc(Nc3ccc(N4C[C@H](C)NC[C@H]4C)cc3)ncc2C1=O [Example 102, 3-(2-chloro-6-methylphenyl)-7-((4-((2R,5S)-2,5-dimethylpiperazin-1-yl)phenyl)amino)-1-methyl-2,3-dihydropyrimido[4,5-d]pyrimidin-4(1H)-one] | ≤ 15 | 10 to 100 |
| CN1CC2CN(c3ccc(Nc4ncc5c(n4)N(C)CN(c4c(Cl)cccc4Cl)C5=O)cc3)CC2C1 (stereo not shown) [Example 35, 3-(2,6-dichlorophenyl)-1-methyl-7-((4-(5-methylhexahydropyrrolo[3,4-c]pyrrol-2(1H)-yl)phenyl)amino)-2,3-dihydropyrimido[4,5-d]pyrimidin-4(1H)-one] | 15 to 50 | 10 to 100 |
| C[C@@H]1CN(c2ccc(Nc3ncc4c(n3)N(C)CN(c3c(Cl)cccc3Cl)C4=O)c(F)c2)CCN1 [Example 142, (R)-3-(2,6-dichlorophenyl)-7-((2-fluoro-4-(3-methylpiperazin-1-yl)phenyl)amino)-1-methyl-2,3-dihydropyrimido[4,5-d]pyrimidin-4(1H)-one] | 15 to 50 | ≥ 100 |

The next lines start with the values.

| microsomal CLint at 1 μM [1] [µL/min/mg] | IC50 (Wee-1 kinase) [nM] | Structure (SMILES) |
| --- | --- | --- |
| 15 to 50 | 10 to 100 | C[C@@H]1CN(c2ccc(Nc3ncc4c(n3)N(C)CN(c3c(Cl)cccc3Cl)C4=O)cc2)[C@H](C)CN1 [Example 79, 3-(2,6-dichlorophenyl)-7-((4-((2R,5R)-2,5-dimethylpiperazin-1-yl)phenyl)amino)-1-methyl-2,3-dihydropyrimido[4,5-d]pyrimidin-4(1H)-one] |
| 15 to 50 | 10 to 100 | CN1CN(c2c(Cl)cccc2Cl)C(=O)c2cnc(Nc3ccc(N4CC5CNCC5C4)cc3)nc21 (stereo not shown) [Example 36, 3-(2,6-dichlorophenyl)-7-((4-(hexahydropyrrolo [3,4-c]pyrrol-2(1H)-yl)phenyl)amino)-1-methyl-2,3-dihydropyrimido[4,5-d]pyrimidin-4(1H)-one] |
| ≤ 15 | 10 to 100 | CC(=O)NCc1cc(Nc2ncc3c(n2)N(C)CN(c2c(Cl)cccc2Cl)C3=O)ccc1N1CCNCC1 [Example 145, N-(5-((6-(2,6-dichlorophenyl)-8-methyl-5-oxo-5,6,7,8-tetrahydropyrimido[4,5-d]pyrimidin-2-yl)amino)-2-(piperazin-1-yl)benzyl)acetamide] |
| ≤ 15 | 10 to 100 | CN1CN(c2c(Cl)cccc2Cl)C(=O)c2cnc(Nc3ccc(N4CCN[C@H](CO)C4)c(F)c3)nc21 [Example 48, (S)-3-(2,6-dichlorophenyl)-7-((3-fluoro-4-(3-(hydroxymethyl)piperazin-1-yl)phenyl)amino)-1-methyl-2,3-dihydropyrimido[4,5-d]pyrimidin-4(1H)-one] |
| 15 to 50 | 10 to 100 | COc1cc(Nc2ncc3c(n2)N(C)CN(c2c(Cl)cccc2Cl)C3=O)ccc1N1C[C@@H]2C[C@H]1CN2C [Example 84, 3-(2,6-dichlorophenyl)-7-((3-methoxy-4-((1S,4S)-5-methyl-2,5-diazabicyclo[2.2.1]heptan-2-yl)phenyl)amino)-1-methyl-2,3-dihydropyrimido[4,5-d]pyrimidin-4(1H)-one] |
| 15 to 50 | 10 to 100 | COC[C@@H]1CN(c2ccc(Nc3ncc4c(n3)N(C)CN(c3c(Cl)cccc3Cl)C4=O)cc2)CCN1C [Example 66, (S)-3-(2,6-dichlorophenyl)-7-((4-(3-(methoxymethyl)-4-methylpiperazin-1-yl)phenyl)amino)-1-methyl-2,3-dihydropyrimido[4,5-d]pyrimidin-4(1H)-one] |
| ≤ 15 | ≤ 10 | CC(=O)N1CCN(c2ccc(Nc3ncc4c(n3)N(C)CN(c3c(Cl)cccc3Cl)C4=O)cc2CN2CCCC2)CC1 [Example 138, 7-((4-(4-acetylpiperazin-1-yl)-3-(pyrrolidin-1-ylmethyl)phenyl)amino)-3-(2,6-dichlorophenyl)-1-methyl-2,3-dihydropyrimido[4,5-d]pyrimidin-4(1H)-one] |
| ≤ 15 | ≤ 10 | Cc1cc(Nc2ncc3c(n2)N(C)CN(c2c(Cl)cccc2Cl)C3=O)ccc1N1C[C@@H]2C[C@H]1CN2 [Example 75, 7-((4-((1S,4S)-2,5-diazabicyclo[2.2.1]heptan-2-yl)-3-methylphenyl)amino)-3-(2,6-dichlorophenyl)-1-methyl-2,3-dihydropyrimido[4,5-d]pyrimidin-4(1H)-one] |
| ≤ 15 | ≤ 10 | C[C@@H]1CN(c2ccc(Nc3ncc4c(n3)N(c3ccn(C)n3)CN(c3c(Cl)cccc3Cl)C4=O)cc2)CCN1 [Example 58, (R)-3-(2,6-dichlorophenyl)-1-(1-methyl-1H-pyrazol-3-yl)-7-((4-(3-methylpiperazin-1-yl)phenyl)amino)-2,3-dihydropyrimido[4,5-d]pyrimidin-4(1H)-one] |
